{"source": "patent US9951372B2", "about": "“Compounds and methods for assaying redox state of metabolically active cells and methods for measuring NAD(P)/NAD(P)H” (PROMEGA CORPORATION, priority 2011, dated 2018)", "tested_on": "NAD biosynthesis pathway", "experiment": "Monitoring inhibition of NAD biosynthesis", "type": "cell-based", "settings": "48 hours of treatment; several cell lines; detection with PBI 4312", "method": "Cells were plated at 7.5×10^3 cells/12.5 ul into wells of a 384-well plates. The cells were plated in full media containing 10% FBS (PC3 and A549 cells in F12K; Hela, MD-AMB and HET 116 cells in DMEM without pyruvate; HepG2 cells in E-MEM and Jurkat cells in RPMI). […] The cells were placed in a CO2 dependent incubator. […] Promega Cat. No V8920) was added to each well. The reaction was incubated for 30 minutes at room temperature, and luminescence measured using a Tecan plate luminometer. The data are shown as % inhibition compared to control (no inhibitor) and are plotted using the sigmoidal dose-response, variable slope model supplied with SigmaPlot 11.0 software. A signal-to-background ratio (S/B) calculated between control cells and cells treated with the highest FK866 concentration."}
{"smiles": "O=C(/C=C/c1cccnc1)NCCCCC1CCN(C(=O)c2ccccc2)CC1", "note": "[FK866]", "values": [{"measurement": "effect on cellular NAD levels", "result": "decrease in NAD levels"}]}
